US5286715A, “New adamantyl comprising tripeptides, derivatives and hydrochlorides thereof, their preparation and use” (priority 1989, dated 1994)
“And” between values parts separate entries of the source, which are not always exact repeats. Equal entries are not always repeated. Where two headings read alike, the source gives them in different places.

Key:
melanoma B-16 = assay: Lung metastases development in mice bearing melanoma B-16; format: in vivo, C57BL/6 mice; conditions: for Animals without metastases % / Number of metastatic nodules/mouse % inhibition / Number of metastatic nodules/mouse mean (min-max): counted day 30; for reduction of lung metastases to a fraction of the number in untreated control groups: i.v. administration on day 4
Method: ^a Groups of 8 C57BL/6 mice (5-6 months old), inoculated i.v. with
10^5 melanoma B16 cells on day 0, were given i.v. 25 mg/kg of each
test compound (saline for controls) on days 4 or 7.
Macroscopically detectable lung metastases were counted on day 30.

MCa mammary carcinoma [1] = assay: Survival time of mice bearing MCa mammary carcinoma; format: in vivo, CBA mice; conditions: hydrochloride
Method: (§1) ^a Groups of 7 CBA mice, inoculated i.m. into the calf of the left
(§2) hind leg with 10^6 viable MCa mammary carcinoma cells on day 0, were
(§3) given i.v. the test compounds (saline for controls) on days 1, 5, 9, 13.
^b Survival time was recorded as the number of days of survival of
each mouse from the tumor implantation.

MCa mammary carcinoma [2] = assay: Intramuscular tumor growth in mice bearing MCa mammary carcinoma; format: in vivo, CBA mice; conditions: for Primary tumor weight % Inhibition / Primary tumor weight mg ± S.E.: 24 hrs after last treatment, hydrochloride
Method: The antitumor activity was examined in CBA mice bearing the MCa mammary carcinoma tumor or in C57BL mice inoculated with B-16 melanoma. The doses tested, 5 and 25 mg/kg bodyweight/day, given i.v. on days 1, 5, 9, 13 after tumor implantation were devoid of severe toxicity.
as §1, §2, §3
^b Evaluated 24 hrs after the last treatment. The tumor growth was
estimated by calliper measurements taking tumor density equal to 1 and
using the formula: tumor weight = (π/6)xA^2 xB, with A and B as tw
perpendicular axes (A<B).

Influenza A virus H3N2 = format: cell-based; conditions: MDCK cells 10^4 cells/100 μL/well
Influenza A virus H1N1 = format: cell-based; conditions: MDCK cells 10^4 cells/100 μL/well
MCa mammary carcinoma [3] = assay: Lung metastases development in mice bearing MCa mammary carcinoma; format: in vivo, CBA mice; conditions: for Animals without macroscopically detectable lung metastases % / lung metastases % Inhibition / lung metastases, mean: 25 mg/kg i.v. days 1, 5, 9, 13, evaluated day 23, hydrochloride
Method: | ^a Groups of 7 CBA mice, inoculated i.m. into the calf of the left | hind leg with 10^6 viable MCa mammary carcinoma cells on day 0, were | given i.v. 25 mg/kg of each test compound (saline for controls) on days 1 | 5, 9, 13. Lung metastases evaluation was performed on the freshly removed | lung tissue immediately after killing on day 23 by using a low power | stereo microscope. | ^b Animals without macroscopically detectable lung metastatic nodules

anti-HgG antibodies = assay: Immunoadjuvant activity in rabbits immunized with human gamma globulin (HgG); format: in vivo, New Zealand rabbits; conditions: 0.3 mg i.v. in PBS three days after immunogen; versus controls immunized with HgG in incomplete Freund's adjuvant
Method: The immunostimulating property of Isomer 1 and Isomer 2 of D,L(2-adamantyl-)-glycyl-L-alanyl-D-isoglutamine was tested in rabbits immunized with human gamma globulin (HgG).
New Zealand rabbits (five per group) were immunized s.c. with 0.5 mg of HgG in incomplete Freund's adjuvant. Isomer 1/Isomer 2 (0.3 mg) was administered i.v. in phosphate buffered saline (PBS) three days after immunogen. The formation of anti-HgG antibodies was followed by a solid phase radioimmunoassay method to provide a quantitative measure of anti-HgG antibodies in rabbit sera. Serum antibody content (mg/mL) was determined by parallel line bioassay method, using >>SIGMA<< antihuman IgG (whole molecule) as a standard.

[4] = 25 mg/kg i.v. on day +4, hydrochloride
[5] = 25 mg/kg i.v. on day +7, hydrochloride

Compound	Animals without metastases % (melanoma B-16; 25 mg/kg i.v. on day +4) [%]	Number of metastatic nodules/mouse % inhibition (melanoma B-16; [4]) [%]	Number of metastatic nodules/mouse mean (min-max) (melanoma B-16; [4])	Animals without metastases % (melanoma B-16; [5]) [%]	Number of metastatic nodules/mouse % inhibition (melanoma B-16; [5]) [%]	Number of metastatic nodules/mouse mean (min-max) (melanoma B-16; [5])	reduction of lung metastases to a fraction of the number in untreated control groups (melanoma B-16)	Survival time % Increase (MCa mammary carcinoma [1]; 5 mg/kg i.v. days 1, 5, 9, 13)	Survival time (days) mean (min-max) (MCa mammary carcinoma [1]; 5 mg/kg i.v. days 1, 5, 9, 13)	Survival time % Increase (MCa mammary carcinoma [1]; 25 mg/kg i.v. days 1, 5, 9, 13)	Survival time (days) mean (min-max) (MCa mammary carcinoma [1]; 25 mg/kg i.v. days 1, 5, 9, 13)	Primary tumor weight % Inhibition (MCa mammary carcinoma [2]; 5 mg/kg i.v. days 1, 5, 9, 13) [%]	Primary tumor weight mg ± S.E. (MCa mammary carcinoma [2]; 5 mg/kg i.v. days 1, 5, 9, 13) [mg]	Primary tumor weight % Inhibition (MCa mammary carcinoma [2]; 25 mg/kg i.v. days 1, 5, 9, 13) [%]	Primary tumor weight mg ± S.E. (MCa mammary carcinoma [2]; 25 mg/kg i.v. days 1, 5, 9, 13) [mg]	MIC (minimum inhibitory concentration) (Influenza A virus H3N2; hydrochloride) [µg]	MIC (minimum inhibitory concentration) (Influenza A virus H1N1; hydrochloride) [µg]	Animals without macroscopically detectable lung metastases % (MCa mammary carcinoma [3])	lung metastases % Inhibition (MCa mammary carcinoma [3]) [%]	lung metastases, mean (MCa mammary carcinoma [3])	further results
C[C@H](NC(=O)C(N)C1C2CC3CC(C2)CC1C3)C(=O)N[C@H](CCC(=O)O)C(N)=O.Cl (single isomer, unassigned; isomer 1) [Isomer 1, D,L-(2-Adamantyl-)-glycyl-L-alanyl-D-isoglutamine hydrochloride]	37	-68	1.0 (0-2)	37	-76	0.64 (0-1)	1/3	+10%	24.6 (18-31) days	+13%	25.4 (15-40) days	-28	1387 ± 224	-21	1522 ± 182	> 200	12.5	14.3%	-43	2.71	–
NC12CC3CC(CC(C3)C1)C2 [Symmetrel, amantadine, reference compound]	–	–	–	–	–	–	–	–	–	–	–	–	–	–	–	–	–	–	–	–	MIC (minimum inhibitory concentration) (Influenza A virus H3N2): < 12.5 µg; MIC (minimum inhibitory concentration) (Influenza A virus H1N1): < 12.5 µg
C[C@H](NC(=O)C(N)C1C2CC3CC(C2)CC1C3)C(=O)N[C@H](CCC(=O)O)C(N)=O.Cl (single isomer, unassigned; isomer 2) [Isomer 2, D,L-(2-Adamantyl-)-glycyl-L-alanyl-D-isoglutamine hydrochloride]	37	-69	0.97 (0-2)	28	-48	1.38 (0-4)	1/3	+22%	27.4 (18-40) days	+32%	29.7 (18-40) days	-44	1076 ± 132	-19	1559 ± 177	50	100	57.1% and 57%	-76	1.14	reduction of the volume of the intramuscular tumor (MCa mammary carcinoma [2]; 5 mg/kg bodyweight/day i.v., 24 hours after the last day of treatment): 44%; Antibody formation against HgG (anti-HgG antibodies): significantly enhanced; spontaneous dissemination of tumor to the lungs, % of controls (MCa mammary carcinoma [3]; 25 mg/kg bodyweight/day i.v.): 24 % of controls
